Our source for the IC50 and melting point values is PMC6630832, “3-Vinylazetidin-2-Ones: Synthesis, Antiproliferative and Tubulin Destabilizing Activity in MCF-7 and MDA-MB-231 Breast Cancer Cells” (Pharmaceuticals, 2019).

In series [1] the test system is human MCF-7 breast cancer cells. In words: Cell viability (Alamar Blue) antiproliferative assay in MCF-7 cells. As to conditions: Homo sapiens, MCF7, 72 h, human MCF-7 breast cancer cells; 72 h; mean ± SEM; read-out: Antiproliferative Activity IC50. It is filed as cell-based. How it is done: The human breast carcinoma cell line MCF-7, was purchased from the European Collection of Animal Cell Cultures (ECACC) and was cultured in Eagle’s minimum essential medium with 10% fetal bovine serum, 2 mM L-glutamine and 100 μg/mL penicillin/streptomycin. The medium was supplemented with 1% non-essential amino acids. The human breast carcinoma cell line MDA-MB-231 was purchased from the European Collection of Animal Cell Cultures (ECACC). MDA-MB-231 cells were maintained in Dulbecco’s modified Eagle’s medium (DMEM) supplemeted with 10% (v/v) fetal bovine serum, 2 mM L-glutamine and 100 μg/mL penicillin/streptomycin (complete medium). All media contained 100 U/mL penicillin and 100 μg/mL streptomycin. Triple negative breast cancer Hs578T cells and its invasive variant Hs578Ts(i)8 were obtained as a kind gift from Dr. Susan McDonnell, School of Chemical and Bioprocess Engineering, University College Dublin and were cultured in Dulbecco’s Modified Eagle’s Media (DMEM) with GlutaMAX^TM-I, with the same supplement as for MDA-MB-231 cells in the absence of non-essential amino acids. HEK-293T normal epithelial embryonic kidney cells were cultured in Dulbecco’s Modified Eagle’s Medium (DMEM) with GlutaMAX^TM-I in the absence of non-essential amino acids. K562 and HL-60 cells were originally obtained from the European Collection of Cell Cultures (Salisbury, UK).The K562 cells were derived from a patient in the blast crisis stage of CML HL-60 cells were derive from a patient with acute myeloid leukaemia. Cells were cultured in RPMI-1640 Glutamax medium supplemented with 10% FCS media, and 100 μg/mL penicillin/streptomycin. Cells were maintained at 37 °C in 5% CO2 in a humidified incubator. All cells were sub-cultured three times/week (adherent cells by trypsinisation).
Cells were seeded at a density of 5 × 10^3 cells/well (MCF-7), in triplicate in 96-well plates. After 24 h, cells were then treated with either medium alone, vehicle [1% ethanol (v/v)] or with serial dilutions of CA-4 or β-lactam analogue. Cell viability for MCF-7 and MDA-MB-231 was analysed using the Alamar Blue assay (Invitrogen Corp, Thermo Fisher Scientific, 168 Third Avenue, Waltham, MA, USA) according to the manufacturer’s instructions. After 72 h, Alamar Blue [10% (v/v)] was added to each well and plates were incubated for 3–5 h at 37 °C in the dark. Fluorescence was read using a 96-well fluorimeter with excitation at 530 nm and emission at 590 nm. Results were expressed as percentage viability relative to vehicle control (100%). Dose response curves were plotted and IC50 values (concentration of drug resulting in 50% reduction in cell survival) were obtained using the commercial software package Prism (GraphPad Software, Inc., 2365 Northside, Suite 560, San Diego, CA, USA). Experiments were performed in triplicate on at least three separate occasions.
Background: Alamar Blue is a resazurin reagent that responds to reducing activity.

As usually defined, the IC50 is the point on the concentration scale where inhibition reaches its midpoint. The melting point is the temperature of the solid-liquid transition. Consider `C=CC1C(=O)N(c2cc(OC)c(OC)c(OC)c2)C1c1ccc(F)cc1` (stereo not shown) [Compound 7a, 4-(4-Fluorophenyl)-1-(3,4,5-trimethoxyphenyl)-3-vinylazetidin-2-one], for which the melting point fell in the range of 147 to 149 °C. For the same compound, the IC50 in series [1] was 8.31 ± 1.4 µM.

Turning to `C=CC1C(=O)N(c2cc(OC)c(OC)c(OC)c2)C1c1ccc(Br)cc1` (stereo not shown) [Compound 7c, 4-(4-Bromophenyl)-1-(3,4,5-trimethoxyphenyl)-3-vinylazetidin-2-one], in series [1], the IC50 was 0.445 ± 0.07 µM.

Consider `C=CC1C(=O)N(c2cc(OC)c(OC)c(OC)c2)C1c1ccc(N(C)C)cc1` (stereo not shown) [Compound 7e, 4-(4-Dimethylaminophenyl)-1-(3,4,5-trimethoxyphenyl)-3-vinylazetidin-2-one], for which the IC50 in series [1] is 4.05 ± 0.45 µM.

For `C=CC1C(=O)N(c2cc(OC)c(OC)c(OC)c2)C1c1ccccc1` (stereo not shown) [Compound 7f, 4-Phenyl-1-(3,4,5-trimethoxyphenyl)-3-vinylazetidin-2-one], the melting point was 109 to 111 °C. The IC50 in series [1] came out at 4.03 ± 0.42 µM.

Regarding `C=CC1C(=O)N(c2cc(OC)c(OC)c(OC)c2)C1c1ccc(C)cc1` (stereo not shown) [Compound 7g, 4-p-Tolyl-1-(3,4,5-trimethoxyphenyl)-3-vinylazetidin-2-one], the melting point fell in the range of 106 to 107 °C. In addition, the IC50 in series [1] worked out at 0.355 ± 0.03 µM.

The compound `C=CC1C(=O)N(c2cc(OC)c(OC)c(OC)c2)C1c1ccc(OCCCC)cc1` (stereo not shown) [Compound 7j, 4-(4-Butoxyphenyl)-1-(3,4,5-trimethoxyphenyl)-3-vinylazetidin-2-one] gave a melting point of 100 to 102 °C. Further, the IC50 in series [1] is 14 ± 1.81 µM.

In turn, `C=CC1C(=O)N(c2cc(OC)c(OC)c(OC)c2)C1c1ccc(Oc2ccccc2)cc1` (stereo not shown) [Compound 7k, 4-(4-Phenoxyphenyl)-1-(3,4,5-trimethoxyphenyl)-3-vinylazetidin-2-one] displayed a melting point of 128 to 130 °C. Further, the IC50 in series [1] was 57 ± 3.72 µM.

In the case of `C=CC1C(=O)N(c2cc(OC)c(OC)c(OC)c2)C1c1ccc(OCc2ccccc2)cc1` (stereo not shown) [Compound 7l, 4-(4-Benzyloxyphenyl)-1-(3,4,5-trimethoxyphenyl)-3-vinylazetidin-2-one], the melting point lay in the range of 148 to 149 °C. Also, the IC50 in series [1] was determined as 8.02 ± 0.63 µM.

The compound `C=CC1C(=O)N(c2cc(OC)c(OC)c(OC)c2)C1c1cccc2ccccc12` (stereo not shown) [Compound 7m, 4-Naphthalen-1-yl-1-(3,4,5-trimethoxyphenyl)-3-vinylazetidin-2-one] displayed a melting point of 121 to 122 °C. Also, the concentration for half-maximal inhibition (IC50) in series [1] was determined as 1.74 ± 0.17 µM.

For `C=CC1C(=O)N(c2cc(OC)c(OC)c(OC)c2)C1c1ccc(OC)c([N+](=O)[O-])c1` (stereo not shown) [Compound 7p, 4-(4-Methoxy-3-nitrophenyl)-1-(3,4,5-trimethoxyphenyl)-3-vinylazetidin-2-one], in series [1], the IC50 is 0.618 ± 0.1 µM.

With `C=CC1C(=O)N(c2ccc(F)cc2)C1c1cc(OC)c(OC)c(OC)c1` (stereo not shown) [Compound 8a, 4-(3,4,5-Trimethoxyphenyl)-1-(4-fluorophenyl)-3-vinylazetidin-2-one], the IC50 in series [1] is 1.07 ± 0.14 µM.

`C=CC1C(=O)N(c2ccc(Cl)cc2)C1c1cc(OC)c(OC)c(OC)c1` (stereo not shown) [Compound 8b, 4-(3,4,5-Trimethoxyphenyl)-1-(4-chlorophenyl)-3-vinylazetidin-2-one] came in with a melting point of 131 to 133 °C. Further, the IC50 in series [1] stood at 29.2 ± 1.14 µM.

As to `C=CC1C(=O)N(c2ccc(Br)cc2)C1c1cc(OC)c(OC)c(OC)c1` (stereo not shown) [Compound 8c, 4-(3,4,5-Trimethoxyphenyl)-1-(4-bromophenyl)-3-vinylazetidin-2-one], the melting point lay in the range of 120 to 122 °C. The IC50 in series [1] was 10.4 ± 0.87 µM.

`C=CC1C(=O)N(c2ccc([N+](=O)[O-])cc2)C1c1cc(OC)c(OC)c(OC)c1` (stereo not shown) [Compound 8d, 4-(3,4,5-Trimethoxyphenyl)-1-(4-nitrophenyl)-3-vinylazetidin-2-one]: the IC50 in series [1] came to 59.1 ± 4.16 µM.

With `C=CC1C(=O)N(c2ccc(C(C)(C)C)cc2)C1c1cc(OC)c(OC)c(OC)c1` (stereo not shown) [Compound 8e, 4-(3,4,5-Trimethoxyphenyl)-1-(4-tert-butylphenyl)-3-vinylazetidin-2-one], the melting point was in the range of 172 to 174 °C. Besides, the IC50 in series [1] was 68.8 ± 3.63 µM.

Compound `C=CC1C(=O)N(c2ccccc2)C1c1cc(OC)c(OC)c(OC)c1` (stereo not shown) [Compound 8f, 4-(3,4,5-Trimethoxyphenyl)-1-phenyl-3-vinylazetidin-2-one] gave a melting point of 150 to 151 °C. In series [1], the IC50 is 50.5 ± 4.25 µM.

Take `C=CC1C(=O)N(c2ccc(C)cc2)C1c1cc(OC)c(OC)c(OC)c1` (stereo not shown) [Compound 8g, 4-(3,4,5-Trimethoxyphenyl)-1-p-tolyl-3-vinylazetidin-2-one]: in series [1], the IC50 came to 43.1 ± 2.16 µM.

In the case of `C=CC1C(=O)N(c2ccc(CC)cc2)C1c1cc(OC)c(OC)c(OC)c1` (stereo not shown) [Compound 8h, 4-(3,4,5-Trimethoxyphenyl)-1-(4-ethylphenyl)-3-vinylazetidin-2-one], the melting point was in the range of 110 to 112 °C. For the same compound, in series [1], the IC50 came to 36.4 ± 2.13 µM.

Take `C=CC1C(=O)N(c2ccc(OC)cc2)C1c1cc(OC)c(OC)c(OC)c1` (stereo not shown) [Compound 8i, 4-(3,4,5-Trimethoxyphenyl)-1-(4-methoxyphenyl)-3-vinylazetidin-2-one]: the half-maximal inhibitory concentration (IC50) in series [1] was determined as 65.1 ± 5.55 µM.

Compound `C=CC1C(=O)N(c2ccc(NC(C)=O)cc2)C1c1cc(OC)c(OC)c(OC)c1` (stereo not shown) [Compound 8j, N-(4-(2-(3,4,5-Trimethoxyphenyl)-4-oxo-3-vinylazetidin-1-yl)phenyl)acetamide] gave a melting point of 223 to 224 °C. Besides, the IC50 in series [1] is 4.02 ± 0.64 µM.

Compound `C=CC1C(=O)N(c2ccc(SC)cc2)C1c1cc(OC)c(OC)c(OC)c1` (stereo not shown) [Compound 8k, 1-(4-(Methylthio)phenyl)-4-(3,4,5-trimethoxyphenyl)-3-vinylazetidin-2-one] gave a melting point of 104 to 106 °C. In addition, in series [1], the IC50 is greater than 50 µM.

For the compound `COc1ccc(C2CC(=O)N2c2cc(OC)c(OC)c(OC)c2)cc1O` (stereo not shown) [Compound 9c, 4-(3-Hydroxy-4-methoxyphenyl)-1-(3,4,5-trimethoxyphenyl)-azetidin-2-one], the melting point fell in the range of 78 to 80 °C. In series [1], the IC50 came to 0.017 µM.

Regarding `COc1ccc(C2C(C(C)O)C(=O)N2c2cc(OC)c(OC)c(OC)c2)cc1O` (stereo not shown) [Compound 10a, 3-(1-Hydroxyethyl)-4-(3-hydroxy-4-methoxyphenyl)-1-(3,4,5-trimethoxyphenyl) azetidin-2-one], the IC50 in series [1] was found to be 0.065 ± 0.015 µM.

The compound `C/C=C/C(O)C1C(=O)N(c2cc(OC)c(OC)c(OC)c2)C1c1ccc(OC)cc1` (stereo not shown) [Compound 10b, 3-((E)-1-Hydroxybut-2-enyl)-1-(3,4,5-trimethoxyphenyl)-4-(4-methoxyphenyl) azetidin-2-one] yielded a melting point of 143 to 144 °C. Besides, the IC50 in series [1] is 0.292 ± 0.05 µM.

Regarding `COc1ccc(C2C(C(O)/C=C/c3ccccc3)C(=O)N2c2cc(OC)c(OC)c(OC)c2)cc1` (stereo not shown) [Compound 10e, 3-((E)-1-Hydroxy-3-phenylallyl)-1-(3,4,5-trimethoxyphenyl)-4-(4-methoxyphenyl) azetidin-2-one], the IC50 in series [1] worked out at 0.537 ± 0.08 µM.

For `C=CC(O)C1C(=O)N(c2cc(OC)c(OC)c(OC)c2)C1c1ccc(OC)c(O)c1` (stereo not shown) [Compound 10g, 4-(3-Hydroxy-4-methoxyphenyl)-3-(1-hydroxyallyl)-1-(3,4,5-trimethoxyphenyl) azetidin-2-one], in series [1], the half-maximal inhibitory concentration (IC50) came out at 0.288 ± 0.076 µM.

For `C=CC(C)(O)C1C(=O)N(c2cc(OC)c(OC)c(OC)c2)C1c1ccc(OC)c(O)c1` (stereo not shown) [Compound 10h, 4-(3-Hydroxy-4-methoxy-phenyl)-3-(1-hydroxy-1-methylallyl)-1-(3,4,5-trimethoxy-phenyl)-azetidin-2-one], in series [1], the IC50 amounted to 0.467 ± 0.000253 µM.

For the compound `COc1ccc(C2C(C(C)=O)C(=O)N2c2cc(OC)c(OC)c(OC)c2)cc1O` (stereo not shown) [Compound 11, 3-Acetyl-4-(3-hydroxy-4-methoxyphenyl)-1-(3,4,5-trimethoxyphenyl)azetidin-2-one], the IC50 in series [1] worked out at 0.414 ± 0.132 µM.

Regarding `COc1ccc(C2C(C(O)CO)C(=O)N2c2cc(OC)c(OC)c(OC)c2)cc1O` (stereo not shown) [Compound 13, 3-(1,2-Dihydroxyethyl)-4-(3-hydroxy-4-methoxyphenyl)-1-(3,4,5-trimethoxyphenyl) azetidin-2-one], the IC50 in series [1] came out at 0.069 ± 0.029 µM.

For the compound `C=CC1C(=O)N(c2cc(OC)c(OC)c(OC)c2)C1c1ccc(OC)c(NC(=O)C(C)N)c1` (stereo not shown) [Compound 15, 2-Amino-N-(2-methoxy-5-(1-(3,4,5-trimethoxyphenyl)-4-oxo-3-vinylazetidin-2-yl)phenyl)propanamide], in series [1], the IC50 turned out to be 3.25 ± 0.27 µM.
